Test results published in ChEMBL document CHEMBL1268952, “Design, synthesis, and evaluation of indolinones as inhibitors of the transforming growth factor β receptor I (TGFβRI)” (J Med Chem, 2010).

Tests used:
[1] = target: T1, Lymphokine-activated killer T-cell-originated protein kinase (Homo sapiens) (UniProt Q96KB5); assay: Inhibition of PBK at 1 uM; values are per cent of control
T1 sequence (whole entry): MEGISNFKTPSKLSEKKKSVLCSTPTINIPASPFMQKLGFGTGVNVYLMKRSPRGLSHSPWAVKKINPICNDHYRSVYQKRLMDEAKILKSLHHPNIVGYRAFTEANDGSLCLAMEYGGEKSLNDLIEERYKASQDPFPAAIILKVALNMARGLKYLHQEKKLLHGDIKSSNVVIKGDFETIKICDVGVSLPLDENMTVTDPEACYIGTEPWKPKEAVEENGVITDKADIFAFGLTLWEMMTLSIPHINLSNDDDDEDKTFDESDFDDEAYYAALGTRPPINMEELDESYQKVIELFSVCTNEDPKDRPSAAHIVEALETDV

[2] = target: Dual specificity tyrosine-phosphorylation-regulated kinase 1A (Homo sapiens) (UniProt Q13627); assay: Inhibition of DYRK1A at 1 uM; values are per cent of control
[3] = target: Serine/threonine-protein kinase Nek6 (Homo sapiens) (UniProt Q9HC98); assay: Inhibition of NEK6 at 1 uM; values are per cent of control
Chain of Serine/threonine-protein kinase Nek6 (Homo sapiens) (Q9HC98 whole entry): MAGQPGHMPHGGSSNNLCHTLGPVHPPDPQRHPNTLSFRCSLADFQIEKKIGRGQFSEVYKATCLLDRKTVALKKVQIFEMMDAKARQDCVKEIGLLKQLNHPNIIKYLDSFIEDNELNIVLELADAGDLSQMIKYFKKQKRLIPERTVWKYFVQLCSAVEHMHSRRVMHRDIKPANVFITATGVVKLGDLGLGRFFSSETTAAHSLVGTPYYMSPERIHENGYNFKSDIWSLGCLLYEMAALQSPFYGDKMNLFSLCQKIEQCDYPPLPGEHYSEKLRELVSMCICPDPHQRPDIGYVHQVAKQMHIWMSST

[4] = Inhibition of PKA at 1 uM; values are per cent of control
[5] = target: Cyclin-dependent kinase 2/cyclin A (Homo sapiens) (UniProt P24941+P20248+P78396); assay: Inhibition of CDK2/cyclin A at 1 uM; values are per cent of control
[6] = target: Glycogen synthase kinase-3 beta (Homo sapiens) (UniProt P49841); assay: Inhibition of GSK3-beta at 1 uM; values are per cent of control
Chain of Glycogen synthase kinase-3 beta (Homo sapiens) (P49841 whole entry, looked up): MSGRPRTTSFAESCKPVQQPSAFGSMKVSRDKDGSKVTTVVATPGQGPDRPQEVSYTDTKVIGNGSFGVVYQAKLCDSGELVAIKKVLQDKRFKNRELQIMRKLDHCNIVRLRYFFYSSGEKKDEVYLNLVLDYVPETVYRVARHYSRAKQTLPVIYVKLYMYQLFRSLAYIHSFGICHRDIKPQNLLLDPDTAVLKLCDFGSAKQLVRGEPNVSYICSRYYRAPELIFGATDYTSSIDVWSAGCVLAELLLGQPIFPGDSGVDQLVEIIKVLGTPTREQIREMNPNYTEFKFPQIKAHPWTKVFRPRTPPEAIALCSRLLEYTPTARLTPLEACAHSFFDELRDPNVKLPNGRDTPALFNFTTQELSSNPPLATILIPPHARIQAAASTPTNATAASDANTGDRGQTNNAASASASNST

[7] = target: T2, Serine/threonine-protein kinase Chk1 (Homo sapiens) (UniProt O14757); assay: Inhibition of CHK1 at 1 uM; values are per cent of control
T2 sequence (whole entry): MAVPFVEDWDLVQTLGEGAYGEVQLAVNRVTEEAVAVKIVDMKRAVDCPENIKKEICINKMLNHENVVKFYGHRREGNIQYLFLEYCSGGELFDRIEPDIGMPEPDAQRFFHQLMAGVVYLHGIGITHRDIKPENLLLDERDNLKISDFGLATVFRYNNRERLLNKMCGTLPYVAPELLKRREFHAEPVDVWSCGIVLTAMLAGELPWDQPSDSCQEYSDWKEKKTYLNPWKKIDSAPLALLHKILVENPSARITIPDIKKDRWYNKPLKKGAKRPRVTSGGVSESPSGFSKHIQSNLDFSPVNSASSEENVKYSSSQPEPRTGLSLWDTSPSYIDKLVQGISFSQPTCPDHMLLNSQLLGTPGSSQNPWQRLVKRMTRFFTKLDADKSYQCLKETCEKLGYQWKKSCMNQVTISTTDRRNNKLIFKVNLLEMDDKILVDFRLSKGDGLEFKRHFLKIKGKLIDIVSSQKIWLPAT

[8] = target: Tyrosine-protein kinase CSK (Homo sapiens) (UniProt P41240); assay: Inhibition of CSK at 1 uM; values are per cent of control
Chain of Tyrosine-protein kinase CSK (Homo sapiens) (P41240 2-450 limits assumed): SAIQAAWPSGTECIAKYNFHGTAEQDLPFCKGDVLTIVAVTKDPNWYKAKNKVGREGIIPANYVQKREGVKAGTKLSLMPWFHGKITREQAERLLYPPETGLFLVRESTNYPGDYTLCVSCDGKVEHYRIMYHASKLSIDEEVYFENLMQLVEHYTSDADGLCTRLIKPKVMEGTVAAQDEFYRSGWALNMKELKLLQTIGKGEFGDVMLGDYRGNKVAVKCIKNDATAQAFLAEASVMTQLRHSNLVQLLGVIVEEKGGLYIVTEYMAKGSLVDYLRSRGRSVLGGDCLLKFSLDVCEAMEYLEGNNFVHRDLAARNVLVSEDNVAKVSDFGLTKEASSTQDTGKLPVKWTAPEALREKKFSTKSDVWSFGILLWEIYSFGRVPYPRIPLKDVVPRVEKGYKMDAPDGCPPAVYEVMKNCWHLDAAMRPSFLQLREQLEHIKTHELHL

[9] = target: Ribosomal protein S6 kinase beta-1 (Homo sapiens) (UniProt P23443); assay: Inhibition of S6K1 at 1 uM; values are per cent of control
Chain of Ribosomal protein S6 kinase beta-1 (Homo sapiens) (P23443 whole entry, looked up): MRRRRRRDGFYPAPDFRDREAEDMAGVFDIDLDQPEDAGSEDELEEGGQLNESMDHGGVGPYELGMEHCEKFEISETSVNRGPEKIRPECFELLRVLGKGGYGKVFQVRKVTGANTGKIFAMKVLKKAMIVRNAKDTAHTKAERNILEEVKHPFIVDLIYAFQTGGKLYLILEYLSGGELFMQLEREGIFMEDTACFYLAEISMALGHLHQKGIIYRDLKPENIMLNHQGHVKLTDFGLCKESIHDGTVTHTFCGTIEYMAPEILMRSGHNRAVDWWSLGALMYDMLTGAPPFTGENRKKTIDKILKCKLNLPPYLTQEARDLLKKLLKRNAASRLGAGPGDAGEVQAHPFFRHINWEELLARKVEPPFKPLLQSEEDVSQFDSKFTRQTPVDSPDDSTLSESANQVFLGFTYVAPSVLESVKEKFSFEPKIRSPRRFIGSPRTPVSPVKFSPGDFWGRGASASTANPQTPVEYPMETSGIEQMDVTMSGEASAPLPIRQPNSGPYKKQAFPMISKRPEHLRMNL

[10] = target: Mitogen-activated protein kinase 14 (Homo sapiens) (UniProt Q16539); assay: Inhibition of p38alpha at 1 uM; values are per cent of control
[11] = target: T3, MAP kinase-activated protein kinase 5 (Homo sapiens) (UniProt Q8IW41); assay: Inhibition of PRAK at 1 uM; values are per cent of control
T3 sequence (whole entry): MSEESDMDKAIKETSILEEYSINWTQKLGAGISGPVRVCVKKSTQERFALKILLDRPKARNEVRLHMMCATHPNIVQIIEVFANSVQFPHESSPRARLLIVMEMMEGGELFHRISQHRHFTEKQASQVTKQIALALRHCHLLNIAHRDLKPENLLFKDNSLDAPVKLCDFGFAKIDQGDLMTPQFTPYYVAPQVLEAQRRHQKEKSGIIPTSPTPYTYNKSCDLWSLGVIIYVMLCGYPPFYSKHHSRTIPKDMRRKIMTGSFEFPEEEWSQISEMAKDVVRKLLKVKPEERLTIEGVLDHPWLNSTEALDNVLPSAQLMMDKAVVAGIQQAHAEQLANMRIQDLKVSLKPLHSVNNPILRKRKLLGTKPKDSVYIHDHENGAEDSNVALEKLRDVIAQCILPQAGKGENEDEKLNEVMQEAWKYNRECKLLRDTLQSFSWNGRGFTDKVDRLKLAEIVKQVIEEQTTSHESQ

[12] = target: Rho-associated protein kinase 2 (Homo sapiens) (UniProt O75116); assay: Inhibition of ROCK2 at 1 uM; values are per cent of control
Chain of Rho-associated protein kinase 2 (Homo sapiens) (O75116 whole entry, looked up): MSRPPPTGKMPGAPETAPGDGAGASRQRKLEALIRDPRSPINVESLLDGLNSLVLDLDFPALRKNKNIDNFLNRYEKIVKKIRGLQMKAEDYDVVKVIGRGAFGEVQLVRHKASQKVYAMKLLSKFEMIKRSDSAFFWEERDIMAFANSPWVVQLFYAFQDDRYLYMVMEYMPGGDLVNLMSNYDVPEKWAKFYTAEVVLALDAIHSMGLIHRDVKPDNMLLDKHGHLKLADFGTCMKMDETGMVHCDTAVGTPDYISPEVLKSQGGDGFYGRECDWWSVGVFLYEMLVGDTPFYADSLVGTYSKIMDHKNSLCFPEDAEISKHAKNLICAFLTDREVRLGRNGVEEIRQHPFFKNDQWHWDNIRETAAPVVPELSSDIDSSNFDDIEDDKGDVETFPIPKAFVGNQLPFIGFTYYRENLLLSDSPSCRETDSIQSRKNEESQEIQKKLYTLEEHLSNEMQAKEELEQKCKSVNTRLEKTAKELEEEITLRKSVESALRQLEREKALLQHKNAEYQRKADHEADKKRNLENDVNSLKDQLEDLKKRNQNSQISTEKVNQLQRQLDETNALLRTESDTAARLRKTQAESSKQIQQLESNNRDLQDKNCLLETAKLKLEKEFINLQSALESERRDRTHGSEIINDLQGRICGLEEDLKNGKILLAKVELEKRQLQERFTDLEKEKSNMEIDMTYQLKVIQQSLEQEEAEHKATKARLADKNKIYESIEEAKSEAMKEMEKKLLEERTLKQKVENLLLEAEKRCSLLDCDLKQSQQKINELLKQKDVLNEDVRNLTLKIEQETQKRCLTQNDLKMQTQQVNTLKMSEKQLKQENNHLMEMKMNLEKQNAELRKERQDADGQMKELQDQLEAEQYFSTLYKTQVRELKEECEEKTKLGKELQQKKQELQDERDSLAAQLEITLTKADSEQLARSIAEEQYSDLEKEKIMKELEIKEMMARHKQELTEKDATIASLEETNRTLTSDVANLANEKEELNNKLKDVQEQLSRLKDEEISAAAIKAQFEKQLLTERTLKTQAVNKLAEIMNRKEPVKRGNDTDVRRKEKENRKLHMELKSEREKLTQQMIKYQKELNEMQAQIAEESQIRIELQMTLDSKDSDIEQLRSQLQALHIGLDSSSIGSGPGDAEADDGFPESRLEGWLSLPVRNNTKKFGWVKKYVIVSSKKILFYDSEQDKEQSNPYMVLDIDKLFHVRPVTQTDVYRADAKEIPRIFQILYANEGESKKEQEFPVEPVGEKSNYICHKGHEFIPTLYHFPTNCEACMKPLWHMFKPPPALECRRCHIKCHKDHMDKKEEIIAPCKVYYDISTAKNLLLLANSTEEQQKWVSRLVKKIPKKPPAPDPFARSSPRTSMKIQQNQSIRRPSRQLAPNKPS

[13] = target: Dual specificity mitogen-activated protein kinase kinase 1 (Homo sapiens) (UniProt Q02750); assay: Inhibition of MKK1 at 1 uM; values are per cent of control
Chain of Dual specificity mitogen-activated protein kinase kinase 1 (Homo sapiens) (Q02750 whole entry): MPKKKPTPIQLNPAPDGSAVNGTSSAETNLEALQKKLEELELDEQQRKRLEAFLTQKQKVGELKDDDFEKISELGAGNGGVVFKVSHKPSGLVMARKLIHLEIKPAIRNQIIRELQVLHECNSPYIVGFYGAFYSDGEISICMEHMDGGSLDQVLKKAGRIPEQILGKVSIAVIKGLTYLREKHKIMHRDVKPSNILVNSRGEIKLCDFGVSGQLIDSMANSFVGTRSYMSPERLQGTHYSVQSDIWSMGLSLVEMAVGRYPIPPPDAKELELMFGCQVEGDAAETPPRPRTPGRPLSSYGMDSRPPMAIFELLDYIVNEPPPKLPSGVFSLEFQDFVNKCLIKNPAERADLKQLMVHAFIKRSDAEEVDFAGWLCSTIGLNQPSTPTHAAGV

[14] = Inhibition of CK2 at 1 uM; values are per cent of control
[15] = target: Ribosomal protein S6 kinase alpha-5 (Homo sapiens) (UniProt O75582); assay: Inhibition of MSK1 at 1 uM; values are per cent of control
[16] = target: Protein kinase C alpha type (Homo sapiens) (UniProt P17252); assay: Inhibition of PKCalpha at 1 uM; values are per cent of control
[17] = Inhibition of PKB at 1 uM; values are per cent of control
[18] = target: Mitogen-activated protein kinase 8 (Homo sapiens) (UniProt P45983); assay: Inhibition of SAPK1c at 2 uM
Chain of Mitogen-activated protein kinase 8 (Homo sapiens) (P45983 whole entry): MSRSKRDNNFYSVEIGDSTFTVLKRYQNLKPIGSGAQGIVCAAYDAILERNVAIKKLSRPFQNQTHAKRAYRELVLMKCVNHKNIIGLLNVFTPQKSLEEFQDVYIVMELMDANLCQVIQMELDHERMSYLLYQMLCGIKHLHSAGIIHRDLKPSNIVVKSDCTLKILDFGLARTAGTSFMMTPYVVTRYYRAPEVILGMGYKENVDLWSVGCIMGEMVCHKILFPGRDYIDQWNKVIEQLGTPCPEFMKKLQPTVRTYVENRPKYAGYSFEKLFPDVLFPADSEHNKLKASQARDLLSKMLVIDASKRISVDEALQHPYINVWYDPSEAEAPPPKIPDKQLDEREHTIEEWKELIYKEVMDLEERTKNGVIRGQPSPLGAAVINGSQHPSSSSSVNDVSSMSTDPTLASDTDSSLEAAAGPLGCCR

[19] = target: Dual specificity mitogen-activated protein kinase kinase 1 (Homo sapiens) (UniProt Q02750); assay: Inhibition of MKK1A at 1 uM; values are per cent of control
[20] = Inhibition of AMPK at 1 uM; values are per cent of control
[21] = target: Mitogen-activated protein kinase 1 (Homo sapiens) (UniProt P28482); assay: Inhibition of ERK2 at 1 uM; values are per cent of control
Chain of Mitogen-activated protein kinase 1 (Homo sapiens) (P28482 whole entry): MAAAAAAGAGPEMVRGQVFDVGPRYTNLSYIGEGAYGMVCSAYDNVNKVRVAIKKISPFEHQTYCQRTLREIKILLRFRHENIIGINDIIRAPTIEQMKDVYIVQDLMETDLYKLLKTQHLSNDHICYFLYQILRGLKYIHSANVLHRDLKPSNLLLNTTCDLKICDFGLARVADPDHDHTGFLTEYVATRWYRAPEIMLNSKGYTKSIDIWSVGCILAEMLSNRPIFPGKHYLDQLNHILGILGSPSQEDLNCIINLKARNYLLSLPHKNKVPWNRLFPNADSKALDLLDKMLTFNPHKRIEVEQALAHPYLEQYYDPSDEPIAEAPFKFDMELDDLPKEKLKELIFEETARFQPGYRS

SMILES | residual activity [2] [%] | residual activity [3] [%] | residual activity [4] [%] | residual activity [5] [%] | residual activity [6] [%] | residual activity [7] [%] | residual activity [8] [%] | residual activity [9] [%] | residual activity [10] [%] | residual activity [11] [%] | residual activity [12] [%] | residual activity [13] [%] | residual activity [14] [%] | residual activity [15] [%] | residual activity [16] [%] | residual activity [17] [%] | residual activity [18] [%] | residual activity [19] [%] | residual activity [20] [%] | residual activity [1] [%] | other results
CCN(C)C(=O)c1ccc2c(c1)NC(=O)/C2=C(\Nc1ccc(CN2CCCCC2)cc1)c1ccccc1 | 88 | 88 | 96 | 110 | 82 | 74 | 72 | 96 | 92 | 87 | 88 | 48 | 98 | 92 | 88 | 97 | 89 | 47 | 80 | 150 | residual activity [21]: 96%
O=C1Nc2ccccc2/C1=C(/Nc1ccc(CN2CCCCC2)cc1)c1ccccc1 | 18 | 86 | 12 | 38 | 1 | 6 | 32 | 12 | 96 | 38 | 54 | 4 | 90 | 8 | 29 | 88 | 8 | 0 | 4 | 5 | residual activity [21]: 77%
CN(C)C(=O)c1ccc2c(c1)/C(=C(/Nc1ccc(CN3CCCCC3)cc1)c1ccccc1)C(=O)N2 | 45 | 87 | 69 | 39 | 5 | 8 | 74 | 76 | 91 | 59 | 79 | 12 | 73 | 36 | 28 | 93 | 90 | 4 | 2 | 19 | residual activity [21]: 95%

Now from value to compound, other results behind:

residual activity [2] [%] | residual activity [3] [%] | residual activity [4] [%] | residual activity [5] [%] | residual activity [6] [%] | residual activity [7] [%] | residual activity [8] [%] | residual activity [9] [%] | residual activity [10] [%] | residual activity [11] [%] | residual activity [12] [%] | residual activity [13] [%] | residual activity [14] [%] | residual activity [15] [%] | residual activity [16] [%] | residual activity [17] [%] | residual activity [18] [%] | residual activity [19] [%] | residual activity [20] [%] | SMILES | residual activity [1] [%] | other results
86 | 92 | 96 | 87 | 56 | 85 | 78 | 89 | 85 | 70 | 80 | 61 | 86 | 83 | 85 | 92 | 91 | 50 | 81 | CCNCc1ccc(N/C(=C2\C(=O)Nc3cc(C(=O)N(C)CC)ccc32)c2ccccc2)cc1 | 88 | residual activity [21]: 87%
105 | 123 | 90 | 103 | 114 | 84 | 96 | 101 | 121 | 96 | 95 | 59 | 95 | 104 | 89 | 106 | 99 | 93 | 85 | CCNC(=O)c1ccc2c(c1)NC(=O)/C2=C(\Nc1ccc(CN(C)C)cc1)c1ccccc1 | 102 | residual activity [21]: 98%
96 | 118 | 75 | 100 | 124 | 51 | 83 | 100 | 110 | 67 | 88 | 53 | 94 | 105 | 100 | 90 | 105 | 80 | 74 | CCNC(=O)c1ccc2c(c1)NC(=O)/C2=C(\Nc1ccc(N(CCN(C)C)S(C)(=O)=O)cc1)c1ccccc1 | 101 | residual activity [21]: 104%
